Here are results for 18 compounds from patent US20220168427A1 (Ranok Therapeutics (Hangzhou) Co. Ltd., priority 2019, published 2022).

Counter-ions that a name gives are not always drawn.

The target of one data set is HSP90α (Homo sapiens, UniProt P07900). The data set is described as follows: HSP90α Binding Fluorescent Polarization (FP) Assay. As to conditions: competition with FITC-geldanamycin; read-out: HSP90 Binding Potency. An outline of the steps:
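Duplicate wells held BSA buffer, FITC-geldanamycin tracer, compound (3-fold dilution plate spanning 40 μM–2.0 nM) and recombinant protein diluted to 28 μg/ml before addition. Polarization read at 30, 60 and 120 min, 25 °C. Background-corrected mP values gave IC50 through a four-parameter inhibitor-response fit.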

The next data set has as its target T1, BRD4 (BD1+BD2) (Homo sapiens, UniProt O60885).
T1 construct: 1.8 μg/ml recombinant BRD4 (BD1+BD2 domains) protein
The note with it: read-out: BRD4 Binding Potency.

Another data set relates to MV4-11 cells. The data set can be described thus: MV4-11 Cell Cytotoxicity Assay. The data set is classed as cell-based, human. As to conditions: CCK-8; for IC50 at 72 h: human, MV4-11 cells; for IC50: 72 hr. An excerpt:
% Inhibition=100−(D−B)/(S−B)*100%.
S: The absorbance of the maximum (cells with DMSO)
B: The absorbance of the minimum (medium with DMSO)

With `CCNC(=O)c1noc(-c2cc(C(C)C)c(O)cc2O)c1-c1ccc(CN2CCN(CC3CCN(C(=O)C[C@@H]4N=C(c5ccc(Cl)cc5)c5c(sc(C)c5C)-n5c(C)nnc54)CC3)CC2)cc1` [Compound 126, (S)-4-(4-((4-((1-(2-(4-(4-chlorophenyl)-2,3,9-trimethyl-6H-thieno[3,2-f][1,2,4]triazolo[4,3-a][1,4]diazepin-6-yl)acetyl)piperidin-4-yl)methyl)piperazin-1-yl)methyl)phenyl)-5-(2,4-dihydroxy-5-isopropylphenyl)-N-ethylisoxazole-3-carboxamide hydrochloride], the IC50 at HSP90α and at BRD4 (BD1+BD2) was 100 to 1000 nM each time. The compound further yielded an IC50 at 72 h with MV4-11 cells of under 100 nM.

Consider `Cc1sc2c(c1C)C(c1ccc(Cl)cc1)=N[C@@H](CC(=O)NCCOCCOCCN[C@@H](C)C(=O)N[C@H](C(=O)N1CCC[C@H]1C(=O)Nc1snnc1-c1ccccc1)C1CCCCC1)c1nnc(C)n1-2` [Compound 128, (S)-1-((2S,5S)-17-((S)-4-(4-chlorophenyl)-2,3,9-trimethyl-6H-thieno[3,2-f][1,2,4]triazolo[4,3-a][1,4]diazepin-6-yl)-2-cyclohexyl-5-methyl-4,16-dioxo-9,12-dioxa-3,6,15-triazaheptadecanoyl)-N-(4-phenyl-1,2,3-thiadiazol-5-yl)pyrrolidine-2-carboxamide], for which the IC50 on HSP90α and at BRD4 (BD1+BD2) was over 1000 nM each time. Also, the IC50 at 72 h in the data set with MV4-11 cells was over 1000 nM.

Consider `Cc1sc2c(c1C)C(c1ccc(Cl)cc1)=N[C@@H](CC(=O)N1CCC(CN[C@@H](C)C(=O)N[C@H](C(=O)N3CCC[C@H]3C(=O)Nc3snnc3-c3ccccc3)C3CCCCC3)CC1)c1nnc(C)n1-2` [Compound 129, (S)-1-((S)-2-((S)-2-(((1-(2-((S)-4-(4-chlorophenyl)-2,3,9-trimethyl-6H-thieno[3,2-f][1,2,4]triazolo[4,3-a][1,4]diazepin-6-yl)acetyl)piperidin-4-yl)methyl)amino)propanamido)-2-cyclohexylacetyl)-N-(4-phenyl-1,2,3-thiadiazol-5-yl)pyrrolidine-2-carboxamide], for which the IC50 on HSP90α and on BRD4 (BD1+BD2) was over 1000 nM in each case. The IC50 at 72 h in the data set on MV4-11 cells was over 1000 nM.

Consider `Cc1sc2c(c1C)C(c1ccc(Cl)cc1)=N[C@@H](CC(=O)N1CCC(CCN[C@@H](C)C(=O)N[C@H](C(=O)N3CCC[C@H]3C(=O)Nc3snnc3-c3ccccc3)C3CCCCC3)CC1)c1nnc(C)n1-2` [Compound 130, (S)-1-((S)-2-((S)-2-((2-(1-(2-((S)-4-(4-chlorophenyl)-2,3,9-trimethyl-6H-thieno[3,2-f][1,2,4]triazolo[4,3-a][1,4]diazepin-6-yl)acetyl)piperidin-4-yl)ethyl)amino)propanamido)-2-cyclohexylacetyl)-N-(4-phenyl-1,2,3-thiadiazol-5-yl)pyrrolidine-2-carboxamide], for which the figures for the IC50 at HSP90α and on BRD4 (BD1+BD2) were over 1000 nM and 100 to 1000 nM, respectively. The compound further showed an IC50 at 72 h in the data set on MV4-11 cells of 100 to 1000 nM.

In the case of `COc1cccc(-c2cc(C(=O)Nc3ccc(-c4ccc(OC5CCN(CC[C@@H]6N=C(c7ccc(Cl)cc7)c7c(sc(C)c7C)-n7c(C)nnc76)CC5)cc4O)cc3)ccc2OC)c1` [Compound 132], the IC50 at HSP90α and at BRD4 (BD1+BD2) was over 1000 nM in each case. Besides, the IC50 at 72 h in the data set with MV4-11 cells was over 1000 nM.

Take `COc1cccc(-c2cc(C(=O)Nc3ccc(-c4ccc(OC5CCN(C(=O)CNC(=O)C[C@@H]6N=C(c7ccc(Cl)cc7)c7c(sc(C)c7C)-n7c(C)nnc76)CC5)cc4O)cc3)ccc2OC)c1` [Compound 134]: the IC50 on HSP90α and on BRD4 (BD1+BD2) was over 1000 nM each time. In the data set on MV4-11 cells, this compound came in with an IC50 at 72 h of over 1000 nM.

Take `COc1cccc(-c2cc(C(=O)Nc3ccc(-c4ccc(OC5CCN(C)CC5)cc4OCCN(C)CC[C@@H]4N=C(c5ccc(Cl)cc5)c5c(sc(C)c5C)-n5c(C)nnc54)cc3)ccc2OC)c1` [Compound 135]: the values for the IC50 on HSP90α and on BRD4 (BD1+BD2) were over 1000 nM and 100 to 1000 nM, respectively. Moreover, the IC50 at 72 h with MV4-11 cells was 100 to 1000 nM.

Regarding `COc1cccc(-c2cc(C(=O)Nc3ccc(-c4ccc(OC5CCN(C)CC5)cc4OCCN(C)C(=O)C[C@@H]4N=C(c5ccc(Cl)cc5)c5c(sc(C)c5C)-n5c(C)nnc54)cc3)ccc2OC)c1` [Compound 136], the values for the IC50 at HSP90α and at BRD4 (BD1+BD2) were over 1000 nM and 100 to 1000 nM, respectively. The compound further returned an IC50 at 72 h in the data set with MV4-11 cells of 100 to 1000 nM.

In the case of `COc1cccc(-c2cc(C(=O)Nc3ccc(-c4ccc(OC5CCN(C(=O)CNC(=O)C[C@@H]6N=C(c7ccc(Cl)cc7)c7c(sc(C)c7C)-n7c(C)nnc76)CC5)cc4OCCN(C)C)cc3)ccc2OC)c1` [Compound 138], the IC50 at HSP90α was over 1000 nM; on BRD4 (BD1+BD2), under 100 nM. This compound also had an IC50 at 72 h in the data set on MV4-11 cells of under 100 nM.

For `COc1cccc(-c2cc(C(=O)Nc3ccc(-c4ccc(OC5CCN(CC[C@@H]6N=C(c7ccc(Cl)cc7)c7c(sc(C)c7C)-n7c(C)nnc76)CC5)cc4OCCN(C)C)cc3)ccc2OC)c1` [Compound 139, (S)—N-(4′-((1-(2-(4-(4-chlorophenyl)-2,3,9-trimethyl-6H-thieno[3,2-f][1,2,4]triazolo[4,3-a][1,4]diazepin-6-yl)ethyl)piperidin-4-yl)oxy)-2′-(2-(dimethylamino)ethoxy)-[1,1′-biphenyl]-4-yl)-3′,6-dimethoxy-[1,1′-biphenyl]-3-carboxamide], the results for the IC50 on HSP90α, at BRD4 (BD1+BD2) and in the data set with MV4-11 cells were over 1000 nM, 100 to 1000 nM and 100 to 1000 nM, respectively.

Take `COc1cccc(-c2cc(C(=O)Nc3ccc(-c4ccc(OC5CCN(CC[C@@H]6N=C(c7ccc(Cl)cc7)c7c(sc(C)c7C)-n7c(C)nnc76)CC5)cc4OCCN(C)C)cc3)ccc2OC)c1` [Compound 140]: the IC50 on HSP90α, at BRD4 (BD1+BD2) and in the data set with MV4-11 cells was over 1000 nM each time.

For `Cc1sc2c(c1C)C(c1ccc(Cl)cc1)=N[C@@H](CC(=O)N1CCN(Cc3ccc4c(c3)CN(C(=O)c3cc(C(C)C)c(O)cc3O)C4)CC1)c1nnc(C)n1-2` [Compound 141, (S)-2-(4-(4-chlorophenyl)-2,3,9-trimethyl-6H-thieno[3,2-f][1,2,4]triazolo[4,3-a][1,4]diazepin-6-yl)-1-(4-((2-(2,4-dihydroxy-5-isopropylbenzoyl)isoindolin-5-yl)methyl)piperazin-1-yl)ethan-1-one], the IC50 on HSP90α and on BRD4 (BD1+BD2) was 100 to 1000 nM in each case. The compound also returned an IC50 at 72 h in the data set on MV4-11 cells of 100 to 1000 nM.

Take `CCc1cc(C(=O)N2Cc3ccc(CN4CCN(C(=O)C[C@@H]5N=C(c6ccc(Cl)cc6)c6c(sc(C)c6C)-n6c(C)nnc65)CC4)cc3C2)c(O)cc1O` [Compound 142, (S)-2-(4-(4-chlorophenyl)-2,3,9-trimethyl-6H-thieno[3,2-f][1,2,4]triazolo[4,3-a][1,4]diazepin-6-yl)-1-(4-((2-(5-ethyl-2,4-dihydroxybenzoyl)isoindolin-5-yl)methyl)piperazin-1-yl)ethan-1-one]: the IC50 at HSP90α and on BRD4 (BD1+BD2) was 100 to 1000 nM each time. Moreover, the IC50 at 72 h with MV4-11 cells fell in the range of 100 to 1000 nM.

As to `Cc1sc2c(c1C)C(c1ccc(Cl)cc1)=N[C@@H](CC(=O)N1CCN(Cc3ccc4c(c3)CN(C(=O)c3ccc(O)cc3O)C4)CC1)c1nnc(C)n1-2` [Compound 143, (S)-2-(4-(4-chlorophenyl)-2,3,9-trimethyl-6H-thieno[3,2-f][1,2,4]triazolo[4,3-a][1,4]diazepin-6-yl)-1-(4-((2-(2,4-dihydroxybenzoyl)isoindolin-5-yl)methyl)piperazin-1-yl)ethan-1-one], the IC50 on HSP90α is 100 to 1000 nM; at BRD4 (BD1+BD2), over 1000 nM. In the data set on MV4-11 cells, this compound registered an IC50 at 72 h of over 1000 nM.

Take `Cc1cc(C(=O)N2Cc3ccc(CN4CCN(C(=O)C[C@@H]5N=C(c6ccc(Cl)cc6)c6c(sc(C)c6C)-n6c(C)nnc65)CC4)cc3C2)c(O)cc1O` [Compound 144, (S)-2-(4-(4-chlorophenyl)-2,3,9-trimethyl-6H-thieno[3,2-f][1,2,4]triazolo[4,3-a][1,4]diazepin-6-yl)-1-(4-((2-(2,4-dihydroxy-5-methylbenzoyl)isoindolin-5-yl)methyl)piperazin-1-yl)ethan-1-one]: the IC50 at HSP90α and at BRD4 (BD1+BD2) was 100 to 1000 nM throughout. This compound also displayed an IC50 at 72 h in the data set with MV4-11 cells of 100 to 1000 nM.

Regarding `CCCc1cc(C(=O)N2Cc3ccc(CN4CCN(C(=O)C[C@@H]5N=C(c6ccc(Cl)cc6)c6c(sc(C)c6C)-n6c(C)nnc65)CC4)cc3C2)c(O)cc1O` [Compound 145, (S)-2-(4-(4-chlorophenyl)-2,3,9-trimethyl-6H-thieno[3,2-f][1,2,4]triazolo[4,3-a][1,4]diazepin-6-yl)-1-(4-((2-(2,4-dihydroxy-5-propylbenzoyl)isoindolin-5-yl)methyl)piperazin-1-yl)ethan-1-one], the IC50 at HSP90α is 100 to 1000 nM; at BRD4 (BD1+BD2), over 1000 nM. The IC50 at 72 h in the data set on MV4-11 cells was over 1000 nM.

Turning to “(S)—N-(4′-((1-((S)-(2-(4-(4-chlorophenyl)-2,3,9-trimethyl-6H-thieno[3,2-f][1,2,4]triazolo[4,3-a][1,4]diazepin-6-yl)acetyl)glycyl)piperidin-4-yl)oxy)-2′-(2-(dimethylamino)ethoxy)-[1,1′-biphenyl]-4-yl)-3′,6-dimethoxy-[1,1′-biphenyl]-3-carboxamide [Compound 137]”, the IC50 at HSP90α was over 1000 nM; at BRD4 (BD1+BD2), 100 to 1000 nM; in the data set with MV4-11 cells, 100 to 1000 nM.

Consider “(S)—N-(4′-((1-((S)-(2-(4-(4-chlorophenyl)-2,3,9-trimethyl-6H-thieno[3,2-f][1,2,4]triazolo[4,3-a][1,4]diazepin-6-yl)acetyl)glycyl)piperidin-4-yl)oxy)-2′-hydroxy-[1,1′-biphenyl]-4-yl)-3′,6-dimethoxy-[1,1′-biphenyl]-3-carboxamide [Compound 133]”, for which the IC50 on HSP90α, at BRD4 (BD1+BD2) and in the data set on MV4-11 cells was over 1000 nM in each case.
